Test system: G9a and GLP phosphorylation
Assay: Phosphorylation of HA-hG9a or HA-hGLP in Cos-7 cells (pan ph-T immunoprecipitation)
Assay type: cell-based, monkey
Details: 2 μM, 24 h
Procedure: Cos-7 or A549 cells were seeded on 10-cm dishes the day before transfection. Cells were transiently transfected (where indicated) using Lipofectamine 2000 (Invitrogen) with 5 μg each of the indicated plasmids according to the manufacturer's protocol. At 48 h after transfection, cells were treated (or not) with dex for the indicated time period, and cell extracts were prepared in RIPA buffer (50 mM Tris-HCl, pH 8, 150 mM NaCl, 1 mM EDTA, 1% NP-40 and 0.25% deoxycholate) supplemented with protease inhibitor tablets (Roche Molecular Biochemicals) and phosphatase inhibitors (1 mM NaF, 1 mM Na3VO4 and 1 mM β-glycerophosphate). Protein extracts were incubated with 1 μg of the indicated primary antibodies overnight at 4° C. with shaking. Protein A/G Plus Agarose (Santa Cruz sc-2003) beads were added and the mixture was incubated 2 hr at 4° C. The immunoprecipitates were separated on SDS-PAGE. […] In immunoprecipitation experiments 3% of the input of each sample was analyzed by immunoblot using the antibodies listed. […]

COc1cc2c(Nc3ccc(NC(=O)c4ccccc4)cc3)ncnc2cc1OCCCN1CCOCC1 [ZM447439, N-[4-[[6-methoxy-7-(3-morpholin-4-ylpropoxy)quinazolin-4-yl]amino]phenyl]benzamide]
G9a and GLP phosphorylation signals: decreased
